In article PMC8662641, “Site-Specific Labeling of Endogenous Proteins Using CoLDR Chemistry” (Journal of the American Chemical Society, 2021):

Assays:
BTK = BTK (Homo sapiens, UniProt Q06187); design: BTK kinase domain was expressed and purified as previously reported; made in house; method as in Reddi et al., J. Am. Chem. Soc. 2021, 143 (13), 4979–4992; conditions: ref Reddi et al., J. Am. Chem. Soc. 2021, 143 (13), 4979–4992; cited from earlier work
BTK-1h = target: T1, BTK-1h (Homo sapiens, UniProt Q06187); assay: High-throughput screening with 1h-labeled BTK; type: binding
T1 construct: The BTK kinase domain was diluted to 2 μM in the buffer, and 2 μM 1h was added; made in house
T1 sequence (Q06187 402-655): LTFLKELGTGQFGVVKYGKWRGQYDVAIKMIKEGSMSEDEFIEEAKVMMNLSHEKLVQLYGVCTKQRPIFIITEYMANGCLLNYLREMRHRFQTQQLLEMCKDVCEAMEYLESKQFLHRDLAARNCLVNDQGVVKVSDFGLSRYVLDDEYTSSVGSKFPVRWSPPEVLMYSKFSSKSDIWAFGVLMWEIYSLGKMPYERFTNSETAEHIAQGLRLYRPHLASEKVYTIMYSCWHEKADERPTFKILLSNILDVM
Protocol: The collection was composed of BTK binding compounds obtained in our previous luminescence screen[37] (Data set S2). […] The resulting BTK-1h (50 μL) was added to the inhibitors.

[1] = Dataset S2A, 200 μM compound, BTK-1h, 32 °C, 10 min

Chain of BTK (Q06187 402-655 limits assumed): as the sequence (Q06187 402-655) above

| SMILES | BTK Inhibition reported in luminescence assay* (BTK) | FI (650)/FI (620) (BTK-1h; [1]) | FI (BTK-1h)/FI (BTK-1h+Inhibitor) at 620 nm (BTK-1h; [1]) | FI (650)/FI (620) (BTK-1h; Dataset S2C, BTK-1h with inhibitor) | FI (BTK-1h)/FI (BTK-1h+Inhibitor) at 620 nm (BTK-1h; Dataset S2B, 200 μM inhibitor added to BTK-1h (2 μm)) |
| --- | --- | --- | --- | --- | --- |
| Cc1c[nH]c(/C=C2\C(=O)Nc3ccccc32)c1CCC(=O)O [PCM-0216652-001] | 83.4 | 1.505 | 1.061 | – | – |
| CCOc1nc2cccc(C(=O)OC(C)OC(=O)OC3CCCCC3)c2n1Cc1ccc(-c2ccccc2-c2nn[nH]n2)cc1 (centres unmarked) [PCM-0090385-001] | 53.7 | 0.8568 | 1.076 | – | – |
| COc1cc(NC(=O)c2ccc(-c3ccc(Cl)cc3)o2)cc(OC)c1 [PCM-0095366-002] | 56.8 | 1.0001 | 1.041 | – | – |
| O=C(O)c1cc(O)c2c(c1)[C@@H]([C@H]1c3cc(C(=O)O)cc(O)c3C(=O)c3c(O[C@@H]4O[C@H](CO)[C@@H](O)[C@H](O)[C@H]4O)cccc31)c1cccc(O[C@@H]3O[C@H](CO)[C@@H](O)[C@H](O)[C@H]3O)c1C2=O [PCM-0086913-003, Sennoside B] | 84.1 | – | 1.82 | 1.82 | – |
| CO[C@@H](C(=O)N1Cc2[nH]nc(NC(=O)c3ccc(N4CCN(C)CC4)cc3)c2C1)c1ccccc1 [PCM-0094888-003] | 85.5 | 1.661 | 1.3808 | – | – |
| C=CC(=O)Nc1cc(Nc2nccc(-c3c[nH]c4ccccc34)n2)c(OC)cc1N(C)CCN(C)C [PCM-0215489-001] | 91.7 | 1.101 | 1.031 | – | – |
| COc1cc(N2CCC(N3CCN(C)CC3)CC2)ccc1Nc1ncnc(Nc2ccccc2S(=O)(=O)C(C)C)n1 [PCM-0215273-001] | 89 | 1.877 | 1.327 | – | – |
| COc1c(-c2ccc3cc(NS(C)(=O)=O)ccc3c2)cc(-n2ccc(=O)[nH]c2=O)cc1C(C)(C)C [PCM-0216081-001] | 73.4 | 0.9511 | 1.031 | – | – |
| Cn1cc(C2=C(c3cccc(N)c3)C(=O)NC2=O)c2ccccc21 [PCM-0215795-001] | 80.3 | 1.701 | 1.062 | – | – |
| C[C@@H]1O[C@@H](O[C@H]2[C@H](O[C@H]3CC[C@@]4(C)[C@@H](CC[C@]5(C)[C@@H]4CC=C4[C@@H]6CC(C)(C)CC[C@]6(C(=O)O)CC[C@]45C)[C@]3(C)CO)OC[C@H](O[C@@H]3O[C@H](CO)[C@@H](O)[C@H](O)[C@H]3O)[C@@H]2O)[C@H](O)[C@H](O)[C@H]1O [PCM-0216539-001] | 52.5 | 0.7503 | 1.048 | – | – |
| Cc1cnc(C(=O)N[C@H]2CCCCC/C=C\[C@@H]3C[C@@]3(C(=O)NS(=O)(=O)C3CC3)NC(=O)[C@@H]3C[C@@H](Oc4nc5ccccc5c5ccccc45)CN3C2=O)cn1 [PCM-0216057-001] | 53.3 | 0.9612 | 1.053 | – | – |
| Oc1ccc(Nc2nc(-c3ccc(Cl)cc3)cs2)cc1 [PCM-0095692-002] | 84.8 | 1.023 | 1.009 | – | – |
| N#CC(C#N)=Cc1ccc(O)c(O)c1 [PCM-0064867-001] | 54.5 | 0.9306 | 1.013 | – | – |
| Cl[Te]1(Cl)(Cl)OCCO1.N [PCM-0215721-001] | 98.6 | 1.1548 | 1.038 | – | – |
| CC#CC(=O)N1CC[C@@H](n2c(=O)n(-c3ccc(Oc4ccccc4)cc3)c3c(N)ncnc32)C1 [PCM-0215519-001, ONO-4059] | – | – | 2.544 | – | 4.404 |
